Measured values published in publication PMC8286840, “Identifying SARS-CoV-2 antiviral compounds by screening for small molecule inhibitors of Nsp3 papain-like protease” (Biochemical Journal, 2021).
Counter-ions that a name gives are not always drawn. Like-named read-outs stand apart in the source and are kept apart here.

Assays:
[1] = molecular target: T1, SARS-CoV-2 PLpro (nsp3 1564–1878) (Severe acute respiratory syndrome coronavirus 2, UniProt P0DTD1); assay: biochemical; set-up: FRET-quenched peptide (Pro3) cleavage by PLpro, 10 min pre-incubation, slope over 20 min, normalised to no-compound control; details: low concentration screen, read-out: % of control remaining
[2] = molecular target: T1, SARS-CoV-2 PLpro (nsp3 1564–1878); assay: biochemical; set-up: FRET-quenched peptide (Pro3) cleavage by PLpro, 10 min pre-incubation, slope over 20 min, normalised to no-compound control; details: high concentration screen, read-out: % of control remaining

Q: How did the remaining activity at 1.25 µM ([1]; Well no.=1022) turn out when `O=c1c(O)c(-c2ccc(O)cc2O)oc2cc(O)cc(O)c12` [Morin] was run?
A: 96.8%

Q: And the remaining activity at 3.75 µM ([2]; Well no.=1022)?
A: 93.4%

Q: For `N=C(N=C(N)N)N1CCOCC1` [Moroxydine.HCl], which remaining activity at 1.25 µM ([1]; Well no.=1539) is on record?
A: 104%

Q: And the remaining activity at 3.75 µM ([2]; Well no.=1539)?
A: 105%

Q: Which remaining activity at 1.25 µM ([1]; Well no.=6657) does the source give for `CCOc1cc(N)c(Cl)cc1C(=O)NCC1CN(Cc2ccc(F)cc2)CCO1` (stereo not drawn) [Mosapride (citrate)] here?
A: 104%

Q: What about the remaining activity at 3.75 µM ([2]; Well no.=6657) of the same compound?
A: 109%

Q: With `CCOc1cc(N)c(Cl)cc1C(=O)NCC1CN(Cc2ccc(F)cc2)CCO1` (stereo not drawn) [Mosapride citrate] as the compound, how does the remaining activity at 1.25 µM ([1]; Well no.=4807) read?
A: 101%

Q: And the remaining activity at 3.75 µM ([2]; Well no.=4807)?
A: 103%

Q: For `CC1(C)CNc2cc(NC(=O)c3cccnc3NCc3ccncc3)ccc21` [Motesanib Diphosphate (AMG-706)], which remaining activity at 1.25 µM ([1]; Well no.=4611) is on record?
A: 101%

Q: What about the remaining activity at 3.75 µM ([2]; Well no.=4611) of the same compound?
A: 100%

Q: With `CC1(C)CNc2cc(NC(=O)c3cccnc3NCc3ccncc3)ccc21` [Motesanib] as the compound, how does the remaining activity at 1.25 µM ([1]; Well no.=2697) read?
A: 104%

Q: And the remaining activity at 3.75 µM ([2]; Well no.=2697)?
A: 103%

Q: Which remaining activity at 1.25 µM ([1]; Well no.=8413) does the source give for `CCCN(CCC)C(=O)C1=Cc2ccc(-c3ccc(C(=O)N4CCCC4)cc3)cc2N=C(N)C1` [Motolimod] here?
A: 103%

Q: And the remaining activity at 3.75 µM ([2]; Well no.=8413)?
A: 99%

Q: With `COc1c(N2C[C@@H]3CCCN[C@@H]3C2)c(F)cc2c(=O)c(C(=O)O)cn(C3CC3)c12` [Moxifloxacin HCl] as the compound, how does the remaining activity at 1.25 µM ([1]; Well no.=4878) read?
A: 98.1%

Q: And the remaining activity at 3.75 µM ([2]; Well no.=4878)?
A: 93.6%

Q: What does the source list for `COc1c(N2C[C@@H]3CCCN[C@@H]3C2)c(F)cc2c(=O)c(C(=O)O)cn(C3CC3)c12` [Moxifloxacin.HCl]?
A: remaining activity at 1.25 µM ([1]; Well no.=1568): 97.8%; remaining activity at 3.75 µM ([2]; Well no.=1568): 96.5%

Q: Which results are given for `CC(=O)Oc1cc(C(C)C)c(OCCN(C)C)cc1C` [Moxisylyte (hydrochloride)]?
A: remaining activity at 1.25 µM ([1]; Well no.=7424): 94%; remaining activity at 3.75 µM ([2]; Well no.=7424): 97.7%

Q: For `CC(=O)Oc1cc(C(C)C)c(OCCN(C)C)cc1C` [Moxisylyte hydrochloride], which remaining activity at 1.25 µM ([1]; Well no.=976) is on record?
A: 103%

Q: What about the remaining activity at 3.75 µM ([2]; Well no.=976) of the same compound?
A: 101%

Q: For `COc1nc(C)nc(Cl)c1NC1=NCCN1` [Moxonidine hydrochloride], which remaining activity at 1.25 µM ([1]; Well no.=920) is on record?
A: 100%

Q: What about the remaining activity at 3.75 µM ([2]; Well no.=920) of the same compound?
A: 102%

Q: `COc1nc(C)nc(Cl)c1NC1=NCCN1` [Moxonidine] was tested. Which remaining activity at 1.25 µM ([1]; Well no.=4724) did it give?
A: 98.7%

Q: What about the remaining activity at 1.25 µM ([1]; Well no.=7423) of the same compound?
A: 106%

Q: And the remaining activity at 3.75 µM ([2]; Well no.=4724)?
A: 92.3%

Q: Which remaining activity at 1.25 µM ([1]; Well no.=4936) does the source give for `Cc1ccccc1C(=O)Nc1ccc(C(=O)N2CCCC(N(C)C)c3ccccc32)cc1` (stereo not drawn) [Mozavaptan] here?
A: 101%

Q: What about the remaining activity at 1.25 µM ([1]; Well no.=6515) of the same compound?
A: 93.2%

Q: And the remaining activity at 3.75 µM ([2]; Well no.=4936)?
A: 101%

Q: What about the remaining activity at 3.75 µM ([2]; Well no.=6515) of the same compound?
A: 96.3%

Q: How did the remaining activity at 1.25 µM ([1]; Well no.=6340) turn out when `OC[C@H]1O[C@@H](Oc2cc(O)cc(/C=C/c3ccc(O[C@@H]4O[C@H](CO)[C@@H](O)[C@H](O)[C@H]4O)cc3O)c2)[C@H](O)[C@@H](O)[C@@H]1O` [Mulberroside A] was run?
A: 93%

Q: And the remaining activity at 3.75 µM ([2]; Well no.=6340)?
A: 90.9%

Q: Which results are given for `NCc1cc(O)no1` [Muscimol hydrobromide]?
A: remaining activity at 1.25 µM ([1]; Well no.=556): 95.9%; remaining activity at 3.75 µM ([2]; Well no.=556): 94.1%

Q: For `CCCCC(C#N)(Cn1cncn1)c1ccc(Cl)cc1` (stereo not drawn) [Myclobutanil], which remaining activity at 1.25 µM ([1]; Well no.=2001) is on record?
A: 105%

Q: And the remaining activity at 3.75 µM ([2]; Well no.=2001)?
A: 102%

Q: With `COc1c(C)c2c(c(O)c1C/C=C(\C)CCC(=O)OCCN1CCOCC1)C(=O)OC2` [Mycophenolate mofetil] as the compound, how does the remaining activity at 1.25 µM ([1]; Well no.=1923) read?
A: 103%

Q: What about the remaining activity at 3.75 µM ([2]; Well no.=1923) of the same compound?
A: 103%

Q: Which results are given for `COc1c(C)c2c(c(O)c1C/C=C(\C)CCC(=O)O)C(=O)OC2` [Mycophenolic Acid]?
A: remaining activity at 1.25 µM ([1]; Well no.=1553): 100%; remaining activity at 1.25 µM ([1]; Well no.=3415): 96.4%; remaining activity at 3.75 µM ([2]; Well no.=1553): 99.9%; remaining activity at 3.75 µM ([2]; Well no.=3415): 98.7%

Q: `CCOC(=O)c1cnn(-c2ccccc2)c1NC(=O)c1cc2nc(-c3ccco3)cc(C(F)(F)Cl)n2n1` [Mycro 3] was tested. Which remaining activity at 1.25 µM ([1]; Well no.=7158) did it give?
A: 96%

Q: And the remaining activity at 3.75 µM ([2]; Well no.=7158)?
A: 94.4%

Q: What does the source list for `O=c1c(O)c(-c2cc(O)c(O)c(O)c2)oc2cc(O)cc(O)c12` [Myricetin]?
A: remaining activity at 1.25 µM ([1]; Well no.=838): 101%; remaining activity at 1.25 µM ([1]; Well no.=3324): 103%; remaining activity at 1.25 µM ([1]; Well no.=6244): 96.2%; remaining activity at 3.75 µM ([2]; Well no.=838): 102%; remaining activity at 3.75 µM ([2]; Well no.=3324): 108%; remaining activity at 3.75 µM ([2]; Well no.=6244): 96.9%
